2 molecules from publication PMC8509773, “3-Pyridinylidene Derivatives of Chemically Modified Lupane and Ursane Triterpenes as Promising Anticancer Agents by Targeting Apoptosis” (International Journal of Molecular Sciences, 2021) can be followed below.

Entries after “also recorded” stand apart in the source; their conditions may differ. Marks after values point to notes of the source that are not given here.

The test system of data set [1] is Bak gene. The experiment in a line: rtPCR gene expression in A375 cells. The data set is classed as cell-based, human. From the text: (§1) We applied rtPCR techniques in order to investigate the effect of our two compounds on the anti-apoptotic Bcl-XL and Bcl-2 genes as well as the proapoptotic Bak and Bad genes (Table 4). […] Therefore, we may presume that the apoptotic mechanism of both compounds against the A375 cells is not mediated by the tested genes or that alterations in their ratio are the underlying mechanism.

For data set [2], the system named is Bcl-XL gene. Description: rtPCR gene expression in A375 cells. It is filed as cell-based, human.
Text: as §1

Data set [3] deals with Bad gene. The experiment in a line: rtPCR gene expression in A375 cells. The data set is classed as cell-based, human.
Text: as §1

For data set [4], the system named is Bcl-2 gene. Description: rtPCR gene expression in A375 cells. It is filed as cell-based, human.
Text: as §1

For data set [5], the system named is Bak gene. Description: rtPCR gene expression in RPMI cells. The data set is classed as cell-based, human.
Text: as §1

For data set [6], the system named is Bcl-XL gene. The experiment in a line: rtPCR gene expression in RPMI cells. It is filed as cell-based, human.
Text: as §1

The test system of data set [7] is chorioallantoic membrane. Description: Chorioallantoic membrane (CAM) angiogenesis assay. The data set is classed as in vivo, chicken. The settings on record: 1 µM in 0.5% DMSO, applied daily for 72 h. How it is done: The potential effects of compounds 6 and 7 on the angiogenesis process were investigated using the chorioallantoic membrane (CAM) assay which uses fertilized chicken eggs, incubated at 37 °C, under controlled humidity. On the third day of incubation (embryonic day 3 of development, EDD 3), a small opening was made at one end of the eggs and 5–6 mL of albumen was removed, thus facilitating the separation of the chorioallantoic membrane. On EDD 4, a window was cut on the upper side of the egg and subsequently resealed, returning the specimens to the incubator. On EDD 7 (0 h), 10 µL of each test solution was administered inside a plastic ring previously applied on the intensely vascularized surface of the CAM [75, 76]. […] All samples were applied daily in the same volume for 72 h. For each analyzed sample, 5 eggs were used, and all samples were applied in triplicate. Macroscopic evaluation was daily performed in ovo by means of stereomicroscopy (ZEISS SteREO Discovery.V8, Göttingen, Germany) and all images were registered and processed by Axiocam 105 color, AxioVision SE64. Rel. 4.9.1 Software, (ZEISS Göttingen, Germany), ImageJ (ImageJ Version 1.50e, https://imagej.nih.gov/ij/index.html, accessed on 12 May 2021) and GIMP software (GIMP v 2.8, https://www.gimp.org/, accessed on 12 May 2021).

Data set [8] concerns chorioallantoic membrane. The experiment in a line: HET-CAM irritation assay. Conditions: for Irritation Score: 5 min. The source says:
HET-CAM assay was used in order to assess the toxicity of compounds 6 and 7 (Figure 16); the procedure is a low-cost, unique model in biomedical research that allows the testing of the irritation potency of chemical compounds while simultaneously avoiding in vivo experiments. […] The Luepke scale was used to establish the irritation score: 0–0.9 indicates non-irritant, 1–4.9 indicates weakly irritant, 5–8.9 indicates moderately irritant, and 9–21 means strongly irritant.
Compounds 6 and 7 were also evaluated in terms of biocompatibility on mucosal tissues by using the in vivo Hen’s Egg Chorioallantoic Membrane Test (HET-CAM assay). The assay assesses a potential irritant effect on the vascular plexus of the chorioallantoic membrane. The HET-CAM method was carried out following ICCVAM recommendations published in November 2016 in Appendix G and adapted to our laboratory conditions. Thus, 300 µL of control or test solution, respectively, was applied on CAM and the alterations induced at the CAM level were monitored by means of stereomicroscopy (Discovery 8 Stereomicroscope, Zeiss), registering significant images (Axio CAM 105 color, Zeiss), before the application and after 5 min contact with the samples. All images were processed using Zeiss ZEN software, Gimp 2.8 and ImageJ software. Negative control was represented by distilled water and solvent control DMSO 0.5%, while the positive control by the sodium lauryl sulphate (SLS) 0.5% in distillate water. The test substances were tested in concentrations of 1 µM. The observation time of the produced reactions was 5 min (300 s) and the time, at which the occurrence of a particular reaction took place was recorded in seconds. Finally, the following reactions were monitored: hemorrhage—H (blood vessel bleeding), vascular lysis —L (disintegration of blood vessels), and coagulation —C (intra or extra- vascular protein denaturizing). A variety of analysis methods may be used to assess irritancy potential of test substances. One analysis method that has been used extensively used is an irritation score (IS) calculated according to the following formula: IS=5×301−SecH/300+[…]/300+9×301−SecC/300 where H = hemorrhage; L = vessel lysis; C = coagulation; Hemorrhage time (Sec H) = onset of hemorrhage reactions on CAM (in sec); Lysis time (Sec L) = onset of vessel lysis on CAM (in sec); Coagulation time (Sec C) = onset of coagulation formation on CAM (in sec). The formula comprises a factor indicating the impact of the observed effect on vascular damage, e.g., coagulation has the highest impact expressed by the multiplication factor 9. The IS values range on a scale between 0 and 21.

For data set [9], the system named is 1BR3 human fibroblasts. The experiment in a line: MTT cytotoxicity assay for healthy human cells. Conditions: 1BR3 healthy cells, 48 h. It is filed as cell-based. How it is done: (§2) The in vitro cytotoxicity was determined by means of (4,5-dimethylthiazol-2-yl)-2,5-diphenyltetrazolium bromide (MTT) method. In brief, HaCaT, 1BR3 cells were seeded in 96-well plates at an initial density of […] and allowed to attach. Next, the old medium was removed and a fresh one was added containing five concentrations (100 µM, 10 µM, 1 µM, 0.1 µM, and 0.01 µM) of the tested compounds 6 and 7 after which cells were incubated for 48 h. The control cells were treated with the same amount of DMSO, the highest concentration of DMSO present in the medium being 0.5%. A volume of […] MTT reagent (5 mg/mL) was added in each well. During a 4 h contact period, the intact mitochondrial reductase converted and precipitated MTT as blue crystals. The precipitated crystals were dissolved in […] of lysis solution provided by the manufacturer (Sigma-Aldrich). Finally, the reduced MTT was spectrophotometrically analyzed at 570 nm, using a microplate reader (xMark Microplate Spectrophotometer, Bio-Rad, Hercules, CA, USA). GI50 was calculated for each healthy cell line.

Data set [10] relates to HaCaT—human keratinocytes. The experiment in a line: MTT cytotoxicity assay for healthy human cells. It is filed as cell-based. Conditions: 48 h. How it is done: as §2
The subject of data set [11] is Bad gene. Description: rtPCR gene expression in Sk-Mel-28 cells. It is filed as cell-based, human.
Data set [12] relates to Bcl-2 gene. Description: rtPCR gene expression in RPMI cells. It is filed as cell-based, human.

Take `C[C@H]1[C@@H]2[C@H]3CC[C@@H]4[C@@]5(C)C/C(=C\c6cccnc6)C(=O)C(C)(C)[C@@H]5CC[C@@]4(C)[C@]3(C)CC[C@]23CO[C@@]1(C)[C@@H](C(=O)/C=C/c1cccnc1)C3` [Compound 6, 3-Oxo-2-(3-pyridinylidene)-21-[3-(2E-pyridinyl)-prop-2-en-1-one]-20β,28-epoxy-18α,19βH-ursane]: the “Bak gene expression, Mean” value in [1] is listed as “downregulated”; in data set [1] (listed as compound 6) it was 0.546 ***; in data set [5] it was 0.066 ***. Also, the entries for the “Bcl-XL gene expression, Mean” value in [2] and in [6] were 0.286 * and 0.100 **, respectively. Besides, the “Bad gene expression, Mean” value in data set [3] was “downregulated”; in data set [3] (listed as compound 6), 0.150 *; in data set [11], 15.716 **. The “Bcl-2 gene expression, Mean” value is listed as 2.570 in [4] and 0.246 ** in data set [12]. Further, the “Effect on the normal angiogenic process” value in [7] is given as “only slightly affected angiogenesis”. Also, the “Irritation Score” value in [8] (HET-CAM, 300 µL, 1 µM test compounds, scale 0–21) was found to be 0. In data set [8] (HET-CAM, Luepke scale), the “Type of Effect” value was “Non irritant”. Also, the GI50 is 23.1 µM in data set [9]; above 15 µM in data set [9] (Homo sapiens, Fibroblast); 18.6 µM in data set [10]; above 15 µM in data set [10] (Homo sapiens, HaCaT).

As to `COC(=O)[C@]12CC[C@@H](C(=O)/C=C/c3cccnc3)[C@@H]1[C@H]1CC[C@@H]3[C@@]4(C)C/C(=C\c5cccnc5)C(=O)C(C)(C)[C@@H]4CC[C@@]3(C)[C@]1(C)CC2` [Compound 7, methyl 2,30-bis-(3-pyridinylidene)-3,20-dioxo-lup-28-oate], the “Bak gene expression, Mean” value in data set [1] is reported as “upregulation”; in data set [1] (listed as compound 7) it was 17.743 ***; in [5] it was 0.990 **. Also, the “Bcl-XL gene expression, Mean” value in data set [2] is recorded as “upregulation”; in data set [2] (listed as compound 7), 28.893 **; in data set [6], 1.360 *. The figures for the “Bad gene expression, Mean” value in data set [3], in data set [3] (listed as compound 7) and in data set [11] were “upregulation”, 155.433 * and 65.946 ***, respectively. Moreover, the “Bcl-2 gene expression, Mean” value in data set [4] was “upregulation”; in data set [4] (listed as compound 7), 81.120 ***; in data set [12], 0.313. Moreover, the “Effect on the normal angiogenic process” value in data set [7] is “did not interfere with the normal angiogenic process; also recorded: does not influence the angiogenic process”. Besides, in [8] (chicken, in vivo, 1 µM), the “Irritation Score” value is on record as 0. Moreover, in data set [8] (in vivo), the “Type of Effect” value is recorded as “Non irritant”. Moreover, the GI50 was 20.9 µM in data set [9]; above 15 µM in data set [9] (Homo sapiens, Fibroblast); 15.4 µM in data set [10]; above 15 µM in data set [10] (Homo sapiens, HaCaT).
